Test results reported in patent US20060018851A1, “Methods and compositions for preventing and treating hyperpigmentation of skin” (ProCyte Corporation, priority 2004, published 2006).

System: B16 melanocytes
Assay: Melanin (pigment) produced by B16 melanocytes in culture; culture media analyzed for pigment content after 5 days, pictures of culture plates
Assay type: cell-based
Details: for Percent Inhibition of Pigmentation in Melanocytes: 5 days
Procedure: The effect of peptide manganese complexes on pigmentation was determined by determining the amount of melanin produced by B16 melanocytes in culture. Various amounts of a representative peptide manganese complex (glycyl-L-histidyl-L-lysine:manganese) were added to the culture medium. After 5 days, the culture media was collected and analyzed for pigment content. In addition, pictures were taken of the culture plates.

Compound: O=c1cc(CO)occ1O [kojic acid, 5-hydoxy-4-pyran-4-one-2-methyl, reference compound]
- inhibition of pigment formation compared with GHK-Mn (200 ug/mi kojic acid vs 25 ug/ml GHK-Mn): approximately equivalent

Compound: glycyl-L-histidyl-L-lysine:manganese(II) [GHK-Mn]
- Percent Inhibition of Pigmentation in Melanocytes (0.1 ug/mL, Plate I): 42%
- Percent Inhibition of Pigmentation in Melanocytes (0.1 ug/mL, Plate II): 28%
- Percent Inhibition of Pigmentation in Melanocytes (1.0 ug/ml, Plate I): 68%
- Percent Inhibition of Pigmentation in Melanocytes (1.0 ug/ml, Plate II): 35%
- Percent Inhibition of Pigmentation in Melanocytes (10 ug/ml, Plate I): 88%
- Percent Inhibition of Pigmentation in Melanocytes (10 ug/ml, Plate II): 81%
- inhibition of pigment formation compared with kojic acid (25 ug/ml GHK-Mn vs 200 ug/mi kojic acid): approximately equivalent to that of 200 ug/mi of kojic acid
- formation of pigment inhibited relative to the control (highest concentration tested): more than 80%
- formation of melanin pigments in cultured melanocytes (Table 4, FIG. 1) (various concentrations): inhibited the formation of melanin pigments in cultured melanocytes in a dose responsive manner
- visual examination of culture flasks: secreted melanin (FIG. 2) (vs PBS control flask): contains relatively little melanin
- melanin in the cells, high magnification photograph (FIG. 3B) (vs control melanocyte culture (FIG. 3A)): containing much less melanin in the cells
